Measured values: PMC9974481, “Structure of SpoT reveals evolutionary tuning of catalysis via conformational constraint” (Nature Chemical Biology, 2022)

Legend:
[1] = target: T1, SpoTAb (full-length A. baumannii SpoT) (Acinetobacter baumannii, UniProt A0A0D5YCY1); test: 3H-ppGpp hydrolysis, TLC and scintillation counting; format: biochemical; conditions: 1 mM MnCl2, 5 mM Mg2+, HEPES:Polymix pH 7.5, 37 °C, 10-600 μM substrate; labelled compound
T1 construct: gene ABUW_0309; full-length, domains HD, pseudo-SYNTH, Core, TGS, HEL, ZFD, RRM; pET28b His-TEV tag cleaved, E. coli BL21(DE3); monomer, theoretical 80 kDa; locus tag belongs to AB5075, expression gene amplified from AB19606; PDB entries not assigned in text (one is the metal-free NTD)

[2] = target: T1, SpoTAb (full-length A. baumannii SpoT); test: X-ray crystallography, […] Å; format: binding; conditions: crystal soaked with 20 mM ppGpp at 4 °C; Mn2+ in hydrolase active site; PDB entry is 7QPR or 7QPS, not assigned in text

## Nc1nc2c(ncn2[C@@H]2O[C@H](COP(=O)(O)OP(=O)(O)O)[C@@H](OP(=O)(O)OP(=O)(O)O)[C@H]2O)c(=O)[nH]1 [ppGpp]
[1]
  KM: SpoTAb Michaelis constant (KM) and maximum reaction velocity (Vmax) of ^3H-ppGpp hydrolysis were determined
[2]
  X-ray crystallography, 2.5 Å: X-ray structure of full-length catalytically active SpoTAb bound to ppGpp
